Test results published in the NIST ThermoML archive (doi:10.1016/j.fluid.2014.07.010).
± gives the expanded uncertainty stated by the source.

Conditions: Liquid, Ebulliometric method (Recirculating still)

| vapor or sublimation pressure (407.15 K) [kPa] | vapor or sublimation pressure (398.57 K) [kPa] | Structure (SMILES) |
| --- | --- | --- |
| 101.33 ± 0.46 | – | CCc1cccs1 [2-ethylthiophene] |
| – | 101.33 ± 0.46 | CCCCCCCC [octane] |
